Counter-ions that a name gives are not always drawn. Like-named read-outs stand apart in the source and are kept apart here.
Experiments:
[1] = tested on: RANTES production in response to TNF-α from A549 cells; test: RANTES production in response to TNF-α from A549 cells; format: cell-based, human; settings: 100 ng/ml TNF-α, compounds of about 40 to 90% purity, read-out: Cellular activity grade (A549, IC50)
human IKK-β = target: T1, human IKK-β (Homo sapiens, UniProt O14920); test: IKK-β kinase inhibitory assay; format: biochemical; settings: compounds of about 40 to 90% purity, read-out: In vitro activity grade (invitro, IC50)
T1 construct: A cDNA fragment encoding human IKK-β open reading frame was generated by PCR; His; made in house; host or cells: Sf21 insect cells (baculovirus); the GST-IκBα substrate was made in E. coli
T1 sequence (O14920 1-756): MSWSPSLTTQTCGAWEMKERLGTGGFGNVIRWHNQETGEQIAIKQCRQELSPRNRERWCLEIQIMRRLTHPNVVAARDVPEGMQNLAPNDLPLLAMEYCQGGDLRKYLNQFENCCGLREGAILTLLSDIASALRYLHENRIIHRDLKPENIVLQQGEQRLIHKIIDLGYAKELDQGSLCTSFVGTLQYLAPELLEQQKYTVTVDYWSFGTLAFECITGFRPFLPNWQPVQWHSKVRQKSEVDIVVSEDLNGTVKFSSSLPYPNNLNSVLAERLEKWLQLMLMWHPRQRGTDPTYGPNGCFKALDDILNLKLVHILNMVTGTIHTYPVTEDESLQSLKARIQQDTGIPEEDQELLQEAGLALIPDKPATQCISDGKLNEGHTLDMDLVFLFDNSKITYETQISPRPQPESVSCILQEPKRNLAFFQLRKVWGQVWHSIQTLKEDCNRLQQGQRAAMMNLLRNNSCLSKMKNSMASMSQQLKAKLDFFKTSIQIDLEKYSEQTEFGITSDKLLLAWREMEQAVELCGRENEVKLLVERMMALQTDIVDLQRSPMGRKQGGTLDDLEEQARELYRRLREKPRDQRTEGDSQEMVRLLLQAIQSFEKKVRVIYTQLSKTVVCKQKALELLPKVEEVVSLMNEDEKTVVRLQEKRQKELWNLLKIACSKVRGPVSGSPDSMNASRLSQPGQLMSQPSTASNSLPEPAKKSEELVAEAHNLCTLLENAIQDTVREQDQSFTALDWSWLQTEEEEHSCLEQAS
Procedure, shortened: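 His-tagged human IKK-β from baculovirus-infected Sf21 cells (final 0.6 μg/ml) with biotinylated GST-IκBα (1-54) (final 0.2 μM) in Tris-HCl pH 7.6/MgCl2 buffer with 2.5% DMSO compound. Reaction started with ATP plus [γ-^33P] ATP, 2 hrs at room temperature; EDTA-stopped, substrate captured on streptavidin plates and bound radioactivity counted by scintillation.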

IC50 ([1]; Homo sapiens, A549, 24 h)	IC50 (human IKK-β)	IC50 ([1]; 24 hrs)	Compound
> 10000 nM	2000 to 10000 nM		Nc1cccc(-c2cc(-c3ccccc3O)nc(N)c2C(=O)O)c1 [Example 7-1, Sodium 2-amino-4-(3-aminophenyl)-6-(2-hydroxyphenyl)nicotinate]
> 10000 nM	2000 to 10000 nM		NC(=O)c1c(-c2cccc(NC(=O)C(O)CCC(=O)O)c2)cc(-c2ccccc2O)nc1N (stereo not drawn) [Example 7-2, Sodium 5-({3-[2-amino-3-(aminocarbonyl)-6-(2-hydroxyphenyl)-4-pyridinyl]-phenyl}amino)-4-hydroxy-5-oxopentanoate]
1000 to 10000 nM	500 to 2000 nM		Nc1nc(-c2ccccc2O)cc(-c2cccc(NC(=O)CCN3CCCCC3)c2)c1CO [Example 7-3, N-{3-[2-amino-3-(hydroxymethyl)-6-(2-hydroxyphenyl)-4-pyridinyl]phenyl}-3-(1-piperidinyl)propanamide]
< 1000 nM	< 500 nM		CC(=O)Nc1ccc(-c2cc(-c3ccccc3O)nc(N)c2CO)cc1O [Example 8-04]
	< 500 nM	1000 to 10000 nM	CC(=O)Nc1ccc(-c2cc(-c3ccccc3O)nc(N)c2CO)cc1O [Example 8-05]

Second part, the compound before the results:

Compound	IC50 ([1]; Homo sapiens, A549, 24 h)	IC50 (human IKK-β)	IC50 ([1]; 24 hrs)
N#Cc1c(-c2cccc(C(=O)NCCN3CCCCC3)c2)cc(-c2ccccc2O)nc1N [Example 6-1, 3-[2-amino-3-cyano-6-(2-hydroxyphenyl)-4-pyridinyl]-N-[2-(1-piperidinyl)ethyl]benzamide trifluoroacetate]	1000 to 10000 nM	2000 to 10000 nM	
N#Cc1c(-c2ccc(C(=O)NCCN3CCCCC3)cc2)cc(-c2ccccc2O)nc1N [Example 6-02]	> 10000 nM	500 to 2000 nM	
N#Cc1c(-c2ccccc2C(=O)NCCN2CCCCC2)cc(-c2ccccc2O)nc1N [Example 6-03]	1000 to 10000 nM	< 500 nM	
CC(=O)Nc1ccc(-c2cc(-c3ccccc3O)nc(N)c2C#N)cc1OCCN1CCCCC1 [Example 9, N-{4-[2-amino-3-cyano-6-(2-hydroxyphenyl)-4-pyridinyl]-2-[2-(1-piperidinyl)ethoxy]phenyl}acetamide ditrifluoroacetate]	1000 to 10000 nM	500 to 2000 nM	
